# Values quoted from earlier work in US8143269B2, “Inhibitors of store operated calcium release” (Calcimedica, Inc., priority 2008, dated 2012).
# Assays:
# [1] = molecular target: STIM1 and Orai1 in human embryonic kidney 293 cells (HEK293 cells) (Homo sapiens, UniProt Q96D31); conditions: HEK293 cells coexpressing STIM1 and Orai1
# Sequence of STIM1 and Orai1 in human embryonic kidney 293 cells (HEK293 cells) (Q96D31 whole entry): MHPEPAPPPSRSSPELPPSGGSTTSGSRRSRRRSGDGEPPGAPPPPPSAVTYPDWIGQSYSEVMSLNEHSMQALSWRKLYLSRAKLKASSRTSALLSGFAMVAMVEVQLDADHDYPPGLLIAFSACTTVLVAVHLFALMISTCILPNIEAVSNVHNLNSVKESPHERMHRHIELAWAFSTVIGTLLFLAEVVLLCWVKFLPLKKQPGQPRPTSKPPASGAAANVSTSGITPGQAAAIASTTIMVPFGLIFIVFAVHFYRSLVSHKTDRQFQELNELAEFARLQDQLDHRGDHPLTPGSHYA
block of store-dependent Ca2+ entry [1],SMILES,inhibition of SOCE (Jurkat cells),inhibition of proliferation (Jurkat cells),inhibition of SOCE (colon cancer cells),inhibition of proliferation (colon cancer cells)
completely blocked,NCCOB(c1ccccc1)c1ccccc1 [2-aminoethoxydiphenylborate],,,,
,Cc1nnsc1C(=O)Nc1ccc(-n2nc(C(F)(F)F)cc2C(F)(F)F)cc1 [BTP-2],inhibits,inhibits,inhibits,inhibits
